“And” between values parts separate entries of the source, which are not always exact repeats. Identical values can stand only once. “Also recorded” adds a separate entry of the source. Like-named read-outs stand apart in the source and are kept apart here.
What was measured:
[1] = test system: hoiamide A-induced elevation of neuronal [Na+]i in neocortical neurons; type: cell-based, mouse (Swiss-Webster)
[2] = test system: neurotoxin site 2 on VGSCs; details: cited from earlier work
[3] = test system: voltage-gated sodium channels; type: cell-based, mouse (Swiss-Webster)
[4] = test system: neurotoxin site 5 on VGSCs; details: cited from earlier work
[5] = test system: neurotoxin site 2 on VGSCs; type: binding, mouse (Swiss-Webster)
[6] = test system: neurotoxin site 2 on VGSCs; type: cell-based, mouse (Swiss-Webster)
[7] = test system: mouse neocortical neurons
[8] = test system: voltage-gated sodium channels; details: cited from earlier work

C[C@]12N[C@H](Cc3ccccc31)c1ccccc12 [MK-801]
effect on hoiamide A-induced elevation of neuronal [Na+]i [1]: partial, but statistically significant, decrease

NS(=O)(=O)c1cccc2c1c([N+](=O)[O-])cc1nc(O)c(O)nc12 [NBQX]
effect on hoiamide A-induced Na+ influx [1]: no effect

NC1=N[C@H](O)[C@H]2[C@H]3O[C@]4(O)O[C@@H]([C@@H](O)[C@@]2(N1)[C@@H]4O)[C@]3(O)CO [TTX, tetrodotoxin]
effect on hoiamide A-induced elevation of neuronal [Na+]i [1]: eliminated the hoiamide A-induced elevation of neuronal [Na^+]i; also recorded: inhibition of hoiamide A-induced elevation of neuronal [Na^+]i

C=C(C=O)C[C@@H]1C[C@H](O)[C@]2(C)O[C@@H]3C[C@@H]4O[C@@H]5C[C@]6(C)O[C@]7(C)CC[C@@H]8O[C@@H]9C[C@]%10(C)O[C@@H]%11C(C)=CC(=O)O[C@H]%11C[C@H]%10O[C@H]9C[C@@H](C)[C@H]8O[C@H]7C[C@H]6O[C@H]5C/C=C\[C@H]4O[C@H]3C[C@H]2O1 [brevetoxin]
effect on [3H]BTX specific binding (allosteric) [2]: dramatically increased

CC1(C)[C@H](C(=O)O[C@H](C#N)c2cccc(Oc3ccccc3)c2)[C@@H]1C=C(Br)Br [deltamethrin]
sodium influx when given alone [3]: inactive alone | effect on maximum response of hoiamide A-induced sodium influx [1]: significantly increased the maximum response; also recorded: enhance hoiamide A-induced elevation of neuronal [Na^+]i | effect on [3H]BTX specific binding (allosteric) [2]: dramatically increased

C=CC/C=C\C=C/[C@H]1O[C@H]2C[C@H]3O[C@H]4CC[C@H]5O[C@H]6C[C@@]7(C)O[C@@]8(C)[C@@H](O)C[C@H](CCCO)O[C@@H]8C[C@@H]7O[C@@H]6C[C@@H]5O[C@]4(C)C[C@]3(C)O[C@@H]2C=C[C@]1(C)O [gambierol]
effect on PbTx-1 induced elevation of neuronal [Na+]i [4]: inhibited the full agonist PbTx-1 induced elevation of neuronal [Na^+]i | type of agonism at neurotoxin site 5 [4]: low efficacy partial agonist at neurotoxin site 5

CCC[C@@H](C)[C@H](O)[C@H](C)[C@H]1OC(=O)[C@H]([C@@H](C)O)NC(=O)[C@H](C(C)C)OC(=O)[C@H](C)[C@H](O)[C@H]([C@@H](C)CC)NC(=O)[C@@]2(C)CSC(=N2)[C@@]2(C)CSC(=N2)c2csc(n2)C[C@H](OC)[C@@H]1C [hoiamide A]
elevation of neuronal [Na+]i / sodium influx [3]: rapid and concentration-dependent elevation of neuronal [Na^+]i; also recorded: VGSC activator; also recorded: maximum sodium influx that was less than that of the full agonist, batrachotoxin | maximum response, elevation of neuronal [Na+]i [3]: less than 20 mM | relative efficacy for elevation of neuronal [Na+]i [3]: 0.38 | type of agonism at neurotoxin site 2 on VGSCs [3]: partial agonist at neurotoxin site 2; also recorded: partial agonism at the neurotoxin site 2 on VGSCs | EC50 ([3]; read-out: EC50 for hoiamide-induced sodium influx): 2310 nM | inhibition of [3H]BTX specific binding [5]: concentration-dependent inhibition of [^3H]BTX specific binding; also recorded: inhibit the specific binding of [^3H]BTX to VGSCs | IC50 ([5]; read-out: IC50, inhibition of [3H]batrachotoxin binding): 92.8 nM | change of hoiamide A EC50 value by modulator [1]: without altering the hoiamide A EC50 value; also recorded: no corresponding effect on the hoiamide A EC50 value | maximum response of hoiamide A-induced sodium influx, AUC [1]: 89.9 fluorescence x min and 141.4 fluorescence x min and 143.4 fluorescence x min | effect on batrachotoxin-induced sodium influx (SBFI AUC) [6]: concentration-dependent reduction in batrachotoxin-induced sodium influx; also recorded: reversal of batrachotoxin (30 nM)-induced elevation of neuronal [Na^+]i | IC50 [7]: 47.5 nM | cytotoxicity to cancer cells (cancer cells): modest cytotoxicity

COc1ccc(C(=O)O[C@H]2CC[C@@]3(C)[C@@H]4CC[C@H]5[C@]6(O)C[C@H](O)[C@@]7(O)[C@@H](CN8C[C@@H](C)CC[C@H]8[C@@]7(C)O)[C@]6(O)C[C@@]53O[C@]24O)cc1OC [veratridine]
inhibition of [3H]BTX specific binding [5]: much less potent than hoiamide A; also recorded: inhibit the specific binding of [^3H]BTX to VGSCs | IC50 ([5]; read-out: IC50, inhibition of [3H]BTX specific binding): 33000 nM

batrachotoxin
elevation of neuronal [Na+]i / sodium influx [3]: rapid and concentration-dependent elevation of neuronal [Na^+]i | maximum response, elevation of neuronal [Na+]i [3]: greater than 60 mM | EC50 ([3]; read-out: EC50 for batrachotoxin-induced elevation of neuronal [Na+]i): 11.4 nM | type of agonism at neurotoxin site 2 [8]: full agonist at neurotoxin site 2

brevetoxin 3 [PbTx-3]
sodium influx when given alone [3]: inactive alone | effect on maximum response of hoiamide A-induced sodium influx [1]: significant increase in the maximum response; also recorded: enhance hoiamide A-induced elevation of neuronal [Na^+]i

— PMC2763540 (Chemistry & biology, 2009)
